Experimental data from patent US20040219102A1, “Compositions for drug delivery” (priority 2003, published 2004).
Where two headings read alike, the source gives them in different places.

Assays:
JJ5 Breast Cancer cells [1] = conditions: cultured 4 days
Protocol: The number of cells seeded was varied from 3×10^4 to 3×10^6 cells to obtain approximately 350 viable colonies/dish taking into account the plating efficiency and the expected level of cytotoxicity. Control dishes contained JJ5 breast cancer cells which were incubated with normal saline. Growth medium was added and the cells were cultured at 37° C./5% CO2 for 4 days. The growth medium was removed and the colonies were stained with methylene blue (1% in a 1:1 mixture of ethanol and water) then washed twice. The number of colonies per dish was counted using a manual colony counter (Manostat Corp). The plating efficiency was calculated by dividing the number of colonies observed by the number of cells seeded in each dish.

JJ5 Breast Cancer cells [2] = experiment: Cytotoxicity (colony-forming) assay of EGF-111In-labeled transferrin composition against JJ5 breast cancer cells; type: cell-based, human; conditions: 14 days
Protocol: JJ5 breast cancer cells were incubated with increasing amounts EGF-^111In-labeled transferrin composition or ^111In-oxine, centrifuged to remove free ligand, assayed and then seeded into 50 mm culture dishes. […] The growth medium was removed and the colonies were stained with methylene blue (1% in a 1:1 mixture of ethanol and water) then washed twice.
Using a colony-forming assay, the radiotoxicity of internalization for JJ5 breast cancer cells was evaluated.

JJ5 Breast Cancer cells [3] = experiment: Growth inhibition assay of EGF-111In-labeled transferrin composition against JJ5 breast cancer cells; type: cell-based, human; conditions: cultured 4 days
Protocol: JJ5 breast cancer cells (prepared from BCBM JJ5) expressing approximately 10^6 epidermal growth factor receptors/cell were incubated with EGF-^111In-labeled transferrin composition, unlabeled hEGF or ^111In-oxine, centrifuged to remove free ligand, then assayed and seeded (10^6 cells/dish) into 35 mm culture dishes.

JJ5 Breast Cancer cells [4] = experiment: Binding of EGF-111In-labeled transferrin composition to breast cancer cells; parameters: species or system human
Source text: For the normal breast cell line HBL-100, 8000 EGFR/cell has been reported. The expression of EGFR in breast cancer cell lines has a reported range of 800 EGFR/cell for MCF-7 cells to 10^6 EGFR/cell for MDA-MB-468 cells. […] Utilizing the Auger electron emitter ^111In was used in the initial experiments to illustrate the utility of the invention using EGF-^111In-labeled transferrin compositions. […] The cells were transferred to a centrifuge tube and centrifuged. The cell pellet was separated from the supernatant and counted in a g-scintillation counter to determine bound (B) and free (F) radioactivity. Non-specific binding was determined by conducting the assay in 100 nM hEGF. […] Internalized fraction was measured by determining the proportion of radioactivity which could not be displaced from the cell surface by 100 nM hEGF. Cell-associated binding (surface-binding and intracellular accumulation) was expressed as a percentage of medium radioactivity bound per mg of cell study protein. […] EGF-^111In-labeled transferrin composition was rapidly bound by the breast cancer cells and retained for at least 24 hours. Over a 24 hour period at 37° C., <8% was lost from the cells in vitro.

Compound: COc1cccc2c1C(=O)c1c(O)c3c(c(O)c1C2=O)C[C@@](O)(C(=O)CO)C[C@@H]3O[C@H]1C[C@H](N)[C@H](O)[C@H](C)O1 [Doxorubicin]
- growth inhibition of the JJ5 cells compared to the medium control (JJ5 Breast Cancer cells [1]): 95%

Compound: [In+3].[O-]c1cccc2cccnc12.[O-]c1cccc2cccnc12.[O-]c1cccc2cccnc12 [^111In-oxine, reference compound]
- cell killing (JJ5 Breast Cancer cells [2]; at <6 pCi/cell): greater than 99%
- growth inhibition of the JJ5 cells compared to the medium control (JJ5 Breast Cancer cells [3]; 3.5 pCi/cell): 91%

Compound: EGF-^111In-labeled transferrin composition
- reduction in cell survival (JJ5 Breast Cancer cells [2]; 8 pCi/cell): 99%
- time retained by the breast cancer cells (JJ5 Breast Cancer cells [4]; 37° C.): at least 24 hours
- affinity constant for binding to JJ5 cells (JJ5 Breast Cancer cells [4]; 37° C., 30 minutes, non-specific binding in 100 nM hEGF): 8e+08 L/mol
- number of binding sites (JJ5 Breast Cancer cells [4]; JJ5 cells): 2.7×10^6
- 111In radioactivity lost from the cells in vitro (JJ5 Breast Cancer cells [4]; over a 24 hour period at 37° C.): < 8%
- growth inhibition of the JJ5 cells compared to the medium control (JJ5 Breast Cancer cells [3]; 3.4 pCi/cell): 83%
